According to ChEMBL document CHEMBL1777689 (Bioorg Med Chem Lett, 2011):
In brackets after ≈: the same amount, converted by molar mass. Activity calls are given as the source filed them. The rule behind the calls is not given here.

Experiments:
[1] = target: CYP2C9 (Homo sapiens, UniProt P11712); test: Inhibition of CYP2C9 at 3 uM; assay type: ADME
[2] = target: CYP2D6 (Homo sapiens, UniProt P10635); test: Inhibition of CYP2D6 at 3 uM; assay type: ADME
[3] = target: CYP3A4 (Homo sapiens, UniProt P08684); test: Inhibition of CYP3A4 at 3 uM; assay type: ADME
[4] = Aqueous solubility of the compound; assay type: physicochemical; details: buffer
[5] = Half life in rat liver microsomes; assay type: ADME, Microsome
[6] = target: Heat shock protein HSP 90-alpha (Homo sapiens, UniProt P07900)
[7] = system: HCT-116;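 also: antiproliferative effect on human HCT116 cells, read out by luminescence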
[8] = target: Tyrosine-protein kinase Fyn (Homo sapiens, UniProt P06241); test: Inhibition of FYN
[9] = target: Proto-oncogene tyrosine-protein kinase Src (Homo sapiens, UniProt P12931); test: Inhibition of SRC-related membrane-associated tyrosine kinase
[10] = Half life in CD-1 mouse at 2 mg/kg, iv; assay type: ADME, organism-based; set-up: dose 2 mg/kg, route intravenous; details: in vivo
[11] = AUC (0 to infinity) in CD-1 mouse at 2 mg/kg, iv; assay type: ADME, organism-based; set-up: time infinity, dose 2 mg/kg, route intravenous; details: plasma
[12] = Plasma clearance in CD-1 mouse at 2 mg/kg, iv; assay type: ADME, organism-based; set-up: dose 2 mg/kg, route intravenous
[13] = Volume of distribution at steady state in CD-1 mouse at 2 mg/kg, iv; assay type: ADME, organism-based; set-up: dose 2 mg/kg, route intravenous; details: in vivo, read-out: Vdss
[14] = Half life in CD-1 mouse at 10 mg/kg, po; assay type: ADME, organism-based; set-up: dose 10 mg/kg, route oral; details: in vivo
[15] = AUC (0 to infinity) in CD-1 mouse at 10 mg/kg, po; assay type: ADME, organism-based; set-up: time infinity, dose 10 mg/kg, route oral; details: plasma
[16] = target: Voltage-gated inwardly rectifying potassium channel KCNH2 (Homo sapiens, UniProt Q12809)
[17] = system: U-87MG ATCC; details: Homo sapiens
[18] = system: U-87MG ATCC; details: Homo sapiens; remark: listed apart in the source
[19] = system: U-87MG ATCC; details: Homo sapiens; remark: listed apart in the source
[20] = Bioavailability in CD-1 mouse at 10 mg/kg, po; details: in vivo
[21] = Half life in human liver microsomes; assay type: ADME, Microsome
[22] = Half life in mouse liver microsomes; assay type: ADME, Microsome

Sequence of CYP2C9 (P11712 whole entry): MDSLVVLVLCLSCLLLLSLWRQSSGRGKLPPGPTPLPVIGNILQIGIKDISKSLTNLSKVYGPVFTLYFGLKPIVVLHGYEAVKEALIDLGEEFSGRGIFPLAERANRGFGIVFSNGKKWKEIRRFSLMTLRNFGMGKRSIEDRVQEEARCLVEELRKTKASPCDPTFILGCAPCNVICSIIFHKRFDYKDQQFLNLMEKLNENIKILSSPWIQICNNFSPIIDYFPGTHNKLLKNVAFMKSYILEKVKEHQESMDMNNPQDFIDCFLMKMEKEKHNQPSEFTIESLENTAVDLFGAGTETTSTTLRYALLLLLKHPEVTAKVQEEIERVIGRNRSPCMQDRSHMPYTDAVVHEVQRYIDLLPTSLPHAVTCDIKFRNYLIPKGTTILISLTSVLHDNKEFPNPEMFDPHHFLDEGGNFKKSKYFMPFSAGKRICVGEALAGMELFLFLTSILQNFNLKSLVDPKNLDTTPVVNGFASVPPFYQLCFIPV
Sequence of CYP3A4 (P08684 whole entry): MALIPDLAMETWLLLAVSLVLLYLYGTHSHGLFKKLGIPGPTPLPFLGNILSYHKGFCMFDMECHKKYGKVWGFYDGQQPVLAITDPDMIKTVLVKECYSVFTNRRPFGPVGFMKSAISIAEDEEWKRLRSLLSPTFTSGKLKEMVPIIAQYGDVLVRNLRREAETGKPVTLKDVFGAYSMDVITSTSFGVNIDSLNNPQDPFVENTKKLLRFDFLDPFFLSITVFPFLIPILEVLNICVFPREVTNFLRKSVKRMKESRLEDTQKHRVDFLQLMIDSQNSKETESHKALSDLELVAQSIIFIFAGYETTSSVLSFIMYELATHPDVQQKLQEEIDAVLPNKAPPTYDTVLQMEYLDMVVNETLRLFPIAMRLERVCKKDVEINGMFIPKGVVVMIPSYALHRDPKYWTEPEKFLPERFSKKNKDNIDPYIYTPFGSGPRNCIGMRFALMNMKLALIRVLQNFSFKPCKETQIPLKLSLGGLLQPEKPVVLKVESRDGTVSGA
Sequence of Voltage-gated inwardly rectifying potassium channel KCNH2 (Q12809 whole entry): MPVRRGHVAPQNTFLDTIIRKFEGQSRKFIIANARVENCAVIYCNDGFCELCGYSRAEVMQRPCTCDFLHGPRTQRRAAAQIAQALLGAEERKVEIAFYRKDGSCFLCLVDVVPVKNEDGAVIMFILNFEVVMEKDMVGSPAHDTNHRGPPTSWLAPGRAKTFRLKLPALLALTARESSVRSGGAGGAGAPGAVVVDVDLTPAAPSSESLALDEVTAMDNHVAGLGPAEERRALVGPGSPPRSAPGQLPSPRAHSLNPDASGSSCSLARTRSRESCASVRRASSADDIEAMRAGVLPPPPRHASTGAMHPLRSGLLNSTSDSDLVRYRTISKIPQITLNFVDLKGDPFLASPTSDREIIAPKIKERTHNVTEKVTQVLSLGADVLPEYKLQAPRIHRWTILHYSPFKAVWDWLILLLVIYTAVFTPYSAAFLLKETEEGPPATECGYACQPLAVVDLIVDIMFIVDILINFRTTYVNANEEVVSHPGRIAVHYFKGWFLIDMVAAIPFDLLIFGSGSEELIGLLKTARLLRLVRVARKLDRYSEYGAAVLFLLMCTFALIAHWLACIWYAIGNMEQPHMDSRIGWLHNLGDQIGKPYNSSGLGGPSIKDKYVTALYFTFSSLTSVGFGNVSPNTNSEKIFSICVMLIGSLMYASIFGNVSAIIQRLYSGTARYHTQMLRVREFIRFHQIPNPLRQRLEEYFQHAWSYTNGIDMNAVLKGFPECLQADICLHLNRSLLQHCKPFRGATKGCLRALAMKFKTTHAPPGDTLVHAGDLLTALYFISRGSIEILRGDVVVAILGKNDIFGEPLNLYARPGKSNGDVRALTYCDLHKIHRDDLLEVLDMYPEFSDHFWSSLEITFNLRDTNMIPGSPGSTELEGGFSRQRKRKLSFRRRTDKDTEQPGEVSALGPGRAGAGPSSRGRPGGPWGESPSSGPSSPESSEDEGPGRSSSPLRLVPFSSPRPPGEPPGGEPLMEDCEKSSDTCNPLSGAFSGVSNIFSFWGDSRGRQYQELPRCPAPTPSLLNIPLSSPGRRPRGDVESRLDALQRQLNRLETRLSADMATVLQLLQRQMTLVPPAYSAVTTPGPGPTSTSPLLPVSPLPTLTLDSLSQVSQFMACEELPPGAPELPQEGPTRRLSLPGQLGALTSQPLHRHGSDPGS
Sequence of CYP2D6 (P10635 whole entry): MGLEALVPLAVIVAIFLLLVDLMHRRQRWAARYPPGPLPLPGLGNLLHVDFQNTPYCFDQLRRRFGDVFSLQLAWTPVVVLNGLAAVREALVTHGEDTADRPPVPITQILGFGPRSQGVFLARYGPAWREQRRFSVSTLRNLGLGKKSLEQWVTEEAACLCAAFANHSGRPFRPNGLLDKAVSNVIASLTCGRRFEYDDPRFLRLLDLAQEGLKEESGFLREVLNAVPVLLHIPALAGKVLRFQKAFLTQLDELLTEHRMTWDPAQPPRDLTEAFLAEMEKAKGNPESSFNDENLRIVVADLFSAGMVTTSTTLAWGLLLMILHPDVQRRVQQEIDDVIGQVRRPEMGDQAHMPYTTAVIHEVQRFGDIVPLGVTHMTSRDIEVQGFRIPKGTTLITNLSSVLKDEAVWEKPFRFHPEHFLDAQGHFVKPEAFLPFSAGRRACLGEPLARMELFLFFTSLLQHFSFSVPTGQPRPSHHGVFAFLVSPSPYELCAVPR
Sequence of Proto-oncogene tyrosine-protein kinase Src (P12931 2-536 limits assumed): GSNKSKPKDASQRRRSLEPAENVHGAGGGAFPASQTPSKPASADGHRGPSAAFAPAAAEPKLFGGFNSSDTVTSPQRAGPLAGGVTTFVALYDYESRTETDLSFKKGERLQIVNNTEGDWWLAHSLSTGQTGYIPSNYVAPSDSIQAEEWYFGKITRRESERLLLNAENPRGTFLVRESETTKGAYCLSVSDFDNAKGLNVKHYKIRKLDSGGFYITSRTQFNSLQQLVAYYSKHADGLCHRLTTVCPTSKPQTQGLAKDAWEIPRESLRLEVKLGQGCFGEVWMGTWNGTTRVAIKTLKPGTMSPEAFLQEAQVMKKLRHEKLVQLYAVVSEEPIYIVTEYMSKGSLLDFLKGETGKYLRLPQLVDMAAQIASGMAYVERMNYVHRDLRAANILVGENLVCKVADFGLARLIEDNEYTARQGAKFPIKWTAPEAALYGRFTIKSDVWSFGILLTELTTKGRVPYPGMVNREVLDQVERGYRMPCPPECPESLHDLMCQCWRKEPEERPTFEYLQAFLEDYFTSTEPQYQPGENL
Sequence of Tyrosine-protein kinase Fyn (P06241 whole entry): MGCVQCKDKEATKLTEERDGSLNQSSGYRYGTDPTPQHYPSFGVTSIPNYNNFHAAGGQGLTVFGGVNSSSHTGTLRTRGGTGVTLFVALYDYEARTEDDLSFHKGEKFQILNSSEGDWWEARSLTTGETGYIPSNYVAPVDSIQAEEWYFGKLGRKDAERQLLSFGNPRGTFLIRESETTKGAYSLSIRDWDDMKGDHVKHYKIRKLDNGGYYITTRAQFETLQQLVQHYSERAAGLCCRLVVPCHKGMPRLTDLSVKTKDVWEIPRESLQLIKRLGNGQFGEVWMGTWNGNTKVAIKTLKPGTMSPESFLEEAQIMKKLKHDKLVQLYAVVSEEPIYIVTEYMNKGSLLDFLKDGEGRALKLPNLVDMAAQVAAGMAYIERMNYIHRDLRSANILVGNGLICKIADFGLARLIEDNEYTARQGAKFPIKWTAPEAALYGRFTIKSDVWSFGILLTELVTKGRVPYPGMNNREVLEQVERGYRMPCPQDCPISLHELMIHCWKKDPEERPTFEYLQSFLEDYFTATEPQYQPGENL

SMILES	inhibition at 3 µM [1]	inhibition at 3 µM [2]	inhibition at 3 µM [3]	solubility ([4]; read-out: solubility)	half-life [5]	IC50 [6]	EC50 [7]	IC50 [16]	half-life [21]	half-life [22]	further results
Cc1c2c(n3c1CCCN1C[C@@H](N4CCCC4)C[C@@H]1CNc1cc-3ccc1C(N)=O)CC(C)(C)CC2=O	3%	69%	34%	71 µg/mL (≈ 141 µM)	5 min	496 nM	2430 nM	–	–	–	–
Cc1c2c(n3c1CCCN1CCC[C@@H]1CNc1cc-3ccc1C(N)=O)CC(C)(C)CC2=O	6%	–	–	2320 µg/mL (≈ 5350 µM)	6 min	–	–	2600 nM	–	–	IC50 [8]: 22000 nM; IC50 [9]: > 50000 nM; half-life [10]: 276 min; AUC(0-inf) [11]: 1740 ng·h/mL; clearance [12]: 19 mL/min/kg; Vd [13]: 5.3 L/kg; half-life [14]: 312 min; AUC(0-inf) [15]: 6460 ng·h/mL; inhibition [17]: Active; inhibition [18]: Active; inhibition [19]: Active; bioavailability [20]: 74%
Cc1c2c(n3c1CCC(=O)N1CCC[C@@H]1CNc1cc-3ccc1C(N)=O)CC(C)(C)CC2=O	–	–	–	–	–	188 nM	310 nM	–	–	–	–
Cc1c2c(n3c1CCCCN1CCC[C@@H]1CNc1cc-3ccc1C(N)=O)CC(C)(C)CC2=O	0%	2%	67%	> 100 µg/mL	8 min	301 nM	232 nM	–	5 min	11 min	–
Cc1c2c(n3c1CCCNC(=O)[C@H](C)Nc1cc-3ccc1C(N)=O)CC(C)(C)CC2=O	23%	5%	6%	> 100 µg/mL	> 30 min	82 nM	56 nM	–	4 min	> 30 min	–
Cc1c2c(n3c1CCCN1CCCC[C@@H]1[C@H](C)Nc1cc-3ccc1C(N)=O)CC(C)(C)CC2=O	4%	4%	55%	35 µg/mL (≈ 75.7 µM)	7 min	170 nM	67 nM	1500 nM	3 min	6 min	–
Cc1c2c(n3c1CCCN1CCC[C@H]1CNc1cc-3ccc1C(N)=O)CC(C)(C)CC2=O	–	–	–	–	–	–	1140 nM	–	–	–	solubility [4]: 66 µg/mL (≈ 152 µM)
Cc1c2c(n3c1CCCN1CCC[C@@H](C1)Nc1cc-3ccc1C(N)=O)CC(C)(C)CC2=O	74%	12%	76%	16 µg/mL (≈ 36.8 µM)	8 min	78 nM	39 nM	3400 nM	2 min	3 min	–
Cc1c2c(n3c1CCCN1C[C@H](O)C[C@@H]1CNc1cc-3ccc1C(N)=O)CC(C)(C)CC2=O	9%	33%	64%	67 µg/mL (≈ 149 µM)	10 min	153 nM	192 nM	–	3 min	7 min	–
Cc1c2c(n3c1CCN1CCC[C@@H]1CNc1cc-3ccc1C(N)=O)CC(C)(C)CC2=O	0%	6%	32%	6 µg/mL (≈ 14.3 µM)	6 min	883 nM	460 nM	–	–	–	–
Cc1c2c(n3c1CCCN1CC[C@H](CNc4cc-3ccc4C(N)=O)C1)CC(C)(C)CC2=O	2%	0%	53%	> 100 µg/mL	21 min	201 nM	100 nM	440 nM	23 min	> 30 min	–
Cc1c2c(n3c1CCCN1C[C@@H](F)C[C@@H]1CNc1cc-3ccc1C(N)=O)CC(C)(C)CC2=O	46%	9%	77%	3 µg/mL (≈ 6.63 µM)	2 min	61 nM	60 nM	16400 nM	4 min	5 min	–
CC(=O)N1CCN2CCCc3c(C)c4c(n3-c3ccc(C(N)=O)c(c3)NC[C@H]2C1)CC(C)(C)CC4=O	15%	4%	34%	> 100 µg/mL	3 min	106 nM	140 nM	24400 nM	14 min	5 min	–
CC(=O)N[C@H]1C[C@@H]2CNc3cc(ccc3C(N)=O)-n3c(c(C)c4c3CC(C)(C)CC4=O)CCCN2C1	–	–	–	–	–	634 nM	2560 nM	–	–	–	–
Cc1c2c(n3c1CCCN1CC[C@@H](CNc4cc-3ccc4C(N)=O)C1)CC(C)(C)CC2=O	–	–	–	–	–	> 5000 nM	2970 nM	–	–	–	–
Cc1c2c(n3c1CCCN1CC[C@@H](C1)Nc1cc-3ccc1C(N)=O)CC(C)(C)CC2=O	25%	23%	70%	49 µg/mL (≈ 117 µM)	5 min	982 nM	671 nM	–	–	–	–
Cc1c2c(n3c1CCCN1CCNC[C@H]1CNc1cc-3ccc1C(N)=O)CC(C)(C)CC2=O	12%	3%	1%	> 100 µg/mL	> 30 min	3320 nM	1850 nM	–	> 30 min	> 30 min	–
Cc1c2c(n3c1CCCN1CCCC[C@@H]1CNc1cc-3ccc1C(N)=O)CC(C)(C)CC2=O	0%	16%	77%	52 µg/mL (≈ 116 µM)	3 min	126 nM	32 nM	–	8 min	27 min	–
Cc1c2c(n3c1CCCN1CCOC[C@@H]1CNc1cc-3ccc1C(N)=O)CC(C)(C)CC2=O	39%	0%	71%	29 µg/mL (≈ 64.4 µM)	3 min	96 nM	34 nM	12500 nM	3 min	7 min	–
